Results reported in patent US20240083857A1, “2-Methyl-Quinazolines” (Bayer Pharma Aktiengesellschaft, priority 2017, published 2024).

Columns and labels:
[1] = target: human SOS1 (nucleotide exchange of K-Ras^G12C) (Homo sapiens, UniProt Q07889); assay: Biochemical assay 2: K-Ras^G12C activation assay by hSOS1 at high GTP concentration (HTRF); conditions: E-notation values; unit inferred; 50 μM GTP; read-out: Assay 2 (KRAS-Activation, high GTP) IC50
[2] = target: human SOS1 (loading of human K-Ras^G12C-GDP with fluorescent GTP-analog) (Homo sapiens, UniProt Q07889); assay: Biochemical assay 3: K-Ras^G12C activation assay by hSOS1 (HTRF); conditions: E-notation values; unit inferred; read-out: Assay 3 (KRAS-Activation) IC50

Compound | IC50 [1] | IC50 [2]
COc1cc2nc(C)nc(NC(C)c3cc(Cl)c(Br)s3)c2cc1OC (centres unmarked) [Example 432, N-[1-(5-bromo-4-chlorothiophen-2-yl)ethyl]-6,7-dimethoxy-2-methylquinazolin-4-amine] | 15700 nM | > 20000 nM
Cc1nc(NC(C)c2ccc(-c3ccccc3CN(C)C)s2)c2cc(NCCN3CCOCC3)ccc2n1 (centres unmarked) [Example 433, N4-[1-(5-{2-[(dimethylamino)methyl]phenyl}-2-thienyl)ethyl]-2-methyl-N6-[2-(morpholin-4-yl)ethyl]quinazoline-4,6-diamine] | 70.1 nM | 76.9 nM
Cc1nc(NC(C)c2ccc(Br)s2)c2cc(N3CCN(C)C(=O)C3)ccc2n1 (centres unmarked) [Example 434, 4-(4-{[1-(5-bromothiophen-2-yl)ethyl]amino}-2-methylquinazolin-6-yl)-1-methylpiperazin-2-one] | 2390 nM | 2810 nM
Cc1nc(NC(C)c2ccc(-c3ccccc3CN(C)C)s2)c2cc(N3CCN(C)C(=O)C3)ccc2n1 (centres unmarked) [Example 435, 4-(4-{[1-(5-{2-[(dimethylamino)methyl]phenyl}thiophen-2-yl)ethyl]amino}-2-methylquinazolin-6-yl)-1-methylpiperazin-2-one] | 51.9 nM | 68.6 nM
COC(=O)C(C)(C)c1ccccc1-c1ccc(C(C)Nc2nc(C)nc3cc(OC)c(OC)cc23)s1 (centres unmarked) [Example 436, methyl 2-[2-(5-{1-[(6,7-dimethoxy-2-methylquinazolin-4-yl)amino]ethyl}thiophen-2-yl)phenyl]-2-methylpropanoate] | 1470 nM | 1770 nM
COc1cc2nc(C)nc(NC(C)c3sc(-c4ccccc4CN)cc3Cl)c2cc1OC (centres unmarked) [Example 437, N-[1-{5-[2-(aminomethyl)phenyl]-3-chlorothiophen-2-yl}ethyl]-6,7-dimethoxy-2-methylquinazolin-4-amine] | 95.3 nM | 160 nM
Cc1nc(NC(C)c2ccc(-c3ccccc3CN(C)C)s2)c2cc(NS(C)(=O)=O)ccc2n1 (centres unmarked) [Example 438, N-(4-{[1-(5-{2-[(dimethylamino)methyl]phenyl}thiophen-2-yl)ethyl]amino}-2-methylquinazolin-6-yl)methanesulfonamide] | 65.5 nM | 116 nM
COc1ccc(-c2ccc(C(C)Nc3nc(C)nc4cc(OC)c(OC)cc34)s2)c(CN(C)C)c1 (centres unmarked) [Example 439, N-[1-(5-{2-[(dimethylamino)methyl]-4-methoxyphenyl}thiophen-2-yl)ethyl]-6,7-dimethoxy-2-methylquinazolin-4-amine] | 145 nM | 229 nM
Cc1nc(NC(C)c2ccc(-c3ccccc3CN(C)C)s2)c2cc(NC(=O)N(C)C)ccc2n1 (centres unmarked) [Example 440, 3-(4-{[1-(5-{2-[(dimethylamino)methyl]phenyl}thiophen-2-yl)ethyl]amino}-2-methylquinazolin-6-yl)-1,1-dimethylurea] | 576 nM | 921 nM
Cc1nc(NC(C)c2ccc(Br)s2)c2cc(N3CCN(Cc4ccccc4)C(=O)C3)ccc2n1 (centres unmarked) [Example 441, 1-benzyl-4-(4-{[1-(5-bromothiophen-2-yl)ethyl]amino}-2-methylquinazolin-6-yl)piperazin-2-one] | 3950 nM | 15100 nM
COc1cc2nc(C)nc(NC(C)c3ccc(-c4ccc(C)cc4CN(C)C)s3)c2cc1OC (centres unmarked) [Example 442, N-[1-(5-{2-[(dimethylamino)methyl]-4-methylphenyl}thiophen-2-yl)ethyl]-6,7-dimethoxy-2-methylquinazolin-4-amine] | 39.4 nM | 45.1 nM
COc1cc2nc(C)nc(NC(C)c3ccc(-c4ccc(C5CC5)cc4CN(C)C)s3)c2cc1OC (centres unmarked) [Example 443, N-[1-(5-{4-cyclopropyl-2-[(dimethylamino)methyl]phenyl}thiophen-2-yl)ethyl]-6,7-dimethoxy-2-methylquinazolin-4-amine] | 60.5 nM | 69 nM
COc1cc2nc(C)nc(NC(C)c3ccc(-c4ccccc4C(C)(C)N)s3)c2cc1OC (centres unmarked) [Example 455, N-[1-{5-[2-(2-aminopropan-2-yl)phenyl]thiophen-2-yl}ethyl]-6,7-dimethoxy-2-methylquinazolin-4-amine] | 1040 nM | 769 nM
COc1cc2nc(C)nc(NC(C)c3ccc(-c4ccccc4CN(C)CC#N)s3)c2cc1OC (centres unmarked) [Example 456, {[2-(5-{1-[(6,7-dimethoxy-2-methylquinazolin-4-yl)amino]ethyl}thiophen-2-yl)benzyl](methyl)amino}acetonitrile] | 292 nM | 287 nM
CNC(=O)Nc1ccc2nc(C)nc(NC(C)c3ccc(-c4ccccc4CN(C)C)s3)c2c1 (centres unmarked) [Example 457, 1-(4-{[1-(5-{2-[(dimethylamino)methyl]phenyl}thiophen-2-yl)ethyl]amino}-2-methylquinazolin-6-yl)-3-methylurea] | 682 nM | 638 nM
Cc1nc(NC(C)c2ccc(-c3ccccc3CN(C)C)s2)c2cc(N3CCN(Cc4ccccc4)C(=O)C3)ccc2n1 (centres unmarked) [Example 458, 1-benzyl-4-(4-{[1-(5-{2-[(dimethylamino)methyl]phenyl}thiophen-2-yl)ethyl]amino}-2-methylquinazolin-6-yl)piperazin-2-one] | 40 nM | 45.5 nM
